For assay [1], the target named is PRMT5-MTA (Homo sapiens, UniProt O14744). The assay can be described thus: Enzymatic inhibitory activity against PRMT5-MTA (AlphaScreen). It is filed as biochemical. In outline:
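PRMT5/[…] (1 nM) was preincubated for 30 min at room temperature with 1 µM […] and 2.5 µM SAM, then exposed to compound (10-point, 3-fold from 1000 nM) for 15 min at 23 °C. Histone H4 substrate (5 nM) was added and reacted for 45 min at 23 °C. Symmetric dimethyl-R3 H4 was detected by AlphaScreen and IC50 calculated.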
Background: Alpha assays give light when donor and acceptor beads are brought close together.

The subject of assay [2] is HCT116-WT cells. The assay can be described thus: Inhibitory activity against cell proliferation (CellTiter Glo, 6 days), HCT116-WT. It is filed as cell-based. As to conditions: 144 h, HCT116-WT cells, 6 days, CellTiter Glo; read-out: HCT116-WT IC50. In a few lines:
(§1)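 HCT116 wild-type or MTAP-knockout cells (250/well, McCoy's 5A + 10% FBS) treated after overnight culture with 8-point 4-fold dilutions from 10000 nM for 6 days at 37 °C. Viability read by CellTiter Glo luminescence on day 7; IC50 calculated against DMSO controls.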

The subject of assay [3] is HCT116 MTAP KO cells. The assay can be described thus: Inhibitory activity against cell proliferation (CellTiter Glo, 6 days), HCT116 MTAP KO. It counts as cell-based. As to conditions: for IC50: Homo sapiens, HCT-116, 144 h, HCT116 MTAP KO cells, 6 days, CellTiter Glo, read-out: HCT116 MTAP KO IC50; for Selectivity HCT 116-WT/ HCT116 MTAP KO: ratio of IC50 HCT116-WT / HCT116 MTAP KO. In a few lines:
as §1

These results are taken from patent EP4745134A1 (Jiangsu Yahong Meditech Co., Ltd., priority 2023, dated 2025).

Where two headings read alike, the source gives them in different places.

PRMT5-MTA, sequence (O14744 whole entry): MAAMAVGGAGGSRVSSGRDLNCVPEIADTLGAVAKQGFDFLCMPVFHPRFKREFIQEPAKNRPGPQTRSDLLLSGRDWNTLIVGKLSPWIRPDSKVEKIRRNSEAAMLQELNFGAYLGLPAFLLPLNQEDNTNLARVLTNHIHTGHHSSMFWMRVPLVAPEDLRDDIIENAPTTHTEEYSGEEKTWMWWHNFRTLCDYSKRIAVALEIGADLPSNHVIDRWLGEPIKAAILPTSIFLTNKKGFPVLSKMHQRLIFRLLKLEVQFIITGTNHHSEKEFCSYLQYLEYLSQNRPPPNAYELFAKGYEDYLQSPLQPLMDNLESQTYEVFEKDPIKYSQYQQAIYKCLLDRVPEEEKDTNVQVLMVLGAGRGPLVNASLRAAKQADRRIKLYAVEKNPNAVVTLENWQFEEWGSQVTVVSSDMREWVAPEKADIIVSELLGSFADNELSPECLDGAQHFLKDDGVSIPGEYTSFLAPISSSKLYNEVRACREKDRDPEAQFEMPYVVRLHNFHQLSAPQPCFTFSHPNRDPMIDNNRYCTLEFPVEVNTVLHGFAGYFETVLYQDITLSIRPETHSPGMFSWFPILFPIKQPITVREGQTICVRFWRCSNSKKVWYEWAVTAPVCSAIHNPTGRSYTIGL
PRMT5-MTA, sequence (Q9BQA1 whole entry partner): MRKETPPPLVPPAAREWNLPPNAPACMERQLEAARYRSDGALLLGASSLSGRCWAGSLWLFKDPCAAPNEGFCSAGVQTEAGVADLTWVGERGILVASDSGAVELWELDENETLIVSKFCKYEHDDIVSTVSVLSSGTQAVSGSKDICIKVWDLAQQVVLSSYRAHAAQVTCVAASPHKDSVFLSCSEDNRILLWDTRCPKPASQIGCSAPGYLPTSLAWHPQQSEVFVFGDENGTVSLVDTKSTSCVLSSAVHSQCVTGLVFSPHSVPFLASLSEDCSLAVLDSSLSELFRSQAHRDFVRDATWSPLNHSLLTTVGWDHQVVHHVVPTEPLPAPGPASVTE

For the compound `Cc1cc2nc(N)c3cnn(C)c3c2cc1C(=O)N1CCCN1c1ccc(C(F)(F)F)cc1` [Example 377, (4-amino-1,7-dimethyl-1H-pyrazolo[4,3-c]quinolin-8-yl)(2-(4-(trifluoromethyl)phenyl)pyrazolidin-1-yl)methanone], the IC50 (commonly the concentration that inhibits the measured activity by half) in assay [1] (read-out: IC50) was found to be 3.1 nM; in assay [2] it was 4310 nM; in assay [3] it was 311 nM. The “Selectivity HCT 116-WT/ HCT116 MTAP KO” value in assay [3] was 13.85.
With `[2H]C([2H])([2H])c1cc2cc(C(=O)N(Cc3ccc(-c4cnn(C)c4)cn3)N(C)c3ncccn3)ccc2nc1N` [Example 166, 2-amino-N'-methyl-3-(methyl-D3)-N-((5-(1-methyl-1H-pyrazol-4-yl)pyridin-2-yl)methyl)-N'-(pyrimidin-2-yl)quinoline-6-carbohydrazide], the IC50 in assay [1] (read-out: IC50) worked out at 4.8 nM; in assay [2] it was 1250 nM; in assay [3] it was 68 nM. For the same compound, in assay [3], the “Selectivity HCT 116-WT/ HCT116 MTAP KO” value came to 18.32.
For `Cc1cc2cc(C(=O)N(Cc3ccc(C(F)(F)F)cn3)N(C)c3ccccc3)ccc2nc1N` [Example 75, 2-amino-N',3-dimethyl-N'-phenyl-N-((5-(trifluoromethyl)pyridin-2-yl)methyl)quinoline-6-carbohydrazide], in that order: 3.1 nM, 901 nM, 80 nM and 11.26.
On the same counts, the results for `COC1CN(C(=O)c2cc3c(cc2Cl)nc(N)c2cnn(C)c23)N(c2ncccc2F)C1` (stereo not drawn) [Example 444, (4-amino-7-chloro-1-methyl-1H-pyrazolo [4,3-c]quinolin-8-yl)(2-(3-fluoropyridin-2-yl)-4-methoxypyrazolidin-1-yl)methanone] are 3.7 nM, 1230 nM, 80 nM and 15.43.
For `Cc1cc2cc(C(=O)N(Cc3ccc(C(F)(F)F)cn3)N(C)c3ccccc3F)ccc2nc1N` [Example 111, 2-amino-N'-(2-fluorophenyl)-N',3-dimethyl-N-((5-(trifluoromethyl)pyridin-2-yl)methyl)quinoline-6-carbohydrazide], in that order: 1.7 nM, 1040 nM, 38 nM and 27.47.
With `Cn1ncc2c(N)nc3cc(Cl)c(C(=O)N4CC(C)(F)CN4c4ccccc4F)cc3c21` (stereo not drawn) [Example 419], the results for the IC50 in assay [1], in assay [2] and in assay [3] were 4.6 nM, 226 nM and 14 nM, respectively. The “Selectivity HCT 116-WT/ HCT116 MTAP KO” value in assay [3] was 16.14.
In the case of `Cc1cc2cc(C(=O)N(Cc3ccc(-c4cnn(C5CCC5)c4)cn3)N(C)c3ncccn3)ccc2nc1N` [Example 149, 2-amino-N-((5-(1-cyclobutyl-1H-pyrazol-4-yl)pyridin-2-yl)methyl)-N',3-dimethyl-N'-(pyrimidin-2-yl)quinoline-6-carbohydr azide], the IC50 was found to be 2.9 nM in assay [1] (read-out: IC50), 1590 nM in assay [2] and 99 nM in assay [3]. The “Selectivity HCT 116-WT/ HCT116 MTAP KO” value in assay [3] was 16.02.
For `Cc1cc2cc(C(=O)N(Cc3ccc(Br)cn3)N(C)c3ncccc3C(F)(F)F)ccc2nc1N` [Example 60, 2-amino-N-((5-bromopyridin-2-yl)methyl)-N',3-dimethyl-N'-(3-(trifluoromethyl)pyridin-2-yl)quinoline-6-carbohydrazide], in that order: 2.3 nM, 708 nM, 60 nM and 11.80.
With `Cc1cc2cc(C(=O)N(Cc3ccc(C(F)(F)F)cn3)N(C)c3ncccc3C(F)(F)F)ccc2nc1N` [Example 53, 2-amino-N',3-dimethyl-N'-(3-(trifluoromethyl)pyridin-2-yl)-N-((5-(trifluoromethy 1)pyridin-2-yl)methyl)quinoline-6-carbohydrazide], the concentration for half-maximal inhibition (IC50) was determined as 1.5 nM in assay [1] (read-out: IC50), 2280 nM in assay [2] and 90 nM in assay [3]. In addition, in assay [3], the “Selectivity HCT 116-WT/ HCT116 MTAP KO” value is 25.34.
In the case of `Cc1cc2cc(C(=O)N(Cc3ccc(-c4ccn(C)c4)cn3)N(C)c3ncccn3)ccc2nc1N` [Example 148, 2-amino-N',3-dimethyl-N-((5-(1-methyl-1H-pyrrol-3-yl)pyridin-2-yl)methyl)-N'-(pyrimidin-2-yl)quinoline-6-carbohydrazide], the IC50 was 1 nM in assay [1] (read-out: IC50), 3090 nM in assay [2] and 179 nM in assay [3]. Moreover, in assay [3], the “Selectivity HCT 116-WT/ HCT116 MTAP KO” value worked out at 17.25.
For the compound `Cc1cc2cc(C(=O)N(Cc3ccc(Br)cn3)N(C)c3nccc4nccnc34)ccc2nc1N` [Example 73, 2-amino-N-((5-bromopyridin-2-yl)methyl)-N',3-dimethyl-N'-(pyrido[3,4-b]pyrazin-5-yl)quinoline-6-carbohydrazide], the IC50 in assay [1] (read-out: IC50) stood at 2.5 nM; in assay [2] it was 1200 nM; in assay [3] it was 40 nM. For the same compound, the “Selectivity HCT 116-WT/ HCT116 MTAP KO” value in assay [3] was found to be 29.88.
For `Cc1cc2nc(N)c3cnn(C)c3c2cc1C(=O)N1CC(C)CN1c1ccncc1F` (stereo not drawn) [Example 379, (4-amino-1,7-dimethyl-1H-pyrazolo[4,3-c]quinolin-8-yl)(2-(3-fluoropyridin-4-yl)-4-methylpyrazolidin-1-yl)methanone], the 50% inhibitory concentration (IC50) in assay [1] (read-out: IC50) worked out at 7.8 nM; in assay [2], 1820 nM; in assay [3], 40 nM. The “Selectivity HCT 116-WT/ HCT116 MTAP KO” value in assay [3] is 45.38.
On the same counts, the results for `Cc1cc2nc(N)c3cnn(C)c3c2cc1C(=O)N1CC(C)CN1c1c(F)cccc1F` (stereo not drawn) [Example 400, (4-amino-1,7-dimethyl-1H-pyrazolo[4,3-c]quinolin-8-yl)(2-(2,6-difluorophenyl)-4-methylpyrazolidin-1-yl)methanone] are 5.8 nM, 1870 nM, 33 nM and 56.79.
`Cn1ncc2c(N)nc3cc(Cl)c(C(=O)N4CC(F)(F)CN4c4ncc(Cl)cc4F)cc3c21` [Example 460, (4-amino-7-chloro-1-methyl-1H-pyrazolo [4,3-c]quinolin-8-yl)(2-(5-chloro-3-fluoropyridin-2-yl)-4,4-difluoropyrazolidin-1-yl)methanone]: the results for the IC50 in assay [1] (read-out: IC50), in assay [2] and in assay [3] were 8.2 nM, 479 nM and 18 nM, respectively. In assay [3], the “Selectivity HCT 116-WT/ HCT116 MTAP KO” value came to 26.61.
Consider `CCOc1ccc(CN(C(=O)c2ccc3nc(N)c(C)cc3c2)N(C)c2ncccn2)nc1` [Example 264, 2-amino-N-((5-ethoxypyridin-2-yl)methyl)-N',3-dimethyl-N'-(pyrimidin-2-yl)quin oline-6-carbohydrazide], for which the IC50 in assay [1] (read-out: IC50) turned out to be 1 nM; in assay [2], 2480 nM; in assay [3] it was 138 nM. Also, the “Selectivity HCT 116-WT/ HCT116 MTAP KO” value in assay [3] is given as 17.97.
On the same counts, the results for `[2H]C([2H])([2H])c1cc2cc(C(=O)N(Cc3ccc(C(F)(F)F)cn3)N(c3ncccn3)C([2H])([2H])[2H])ccc2nc1N` [Example 311, 2-amino-N',3-bis(methyl-D3)-N'-(pyrimidin-2-yl)-N-((5-(trifluoromethyl)pyridin-2-yl)methyl)quinoline-6-carbohydrazide] are 3 nM, 1760 nM, 59 nM and 29.78.
On the same counts, the results for `Cc1cc2cc(C(=O)N(Cc3ccc(C(F)(F)F)cn3)N(C)c3ncc(Cl)cn3)ccc2nc1N` [Example 69, 2-amino-N'-(5-chloropyrimidin-2-yl)-N', 3-dimethyl-N-((5-(trifluoromethyl)pyridin-2-yl)methyl)quinoline-6-carbohydrazide] are 2.4 nM, 3160 nM, 216 nM and 14.63.
For `COc1ccccc1N1CC(C)CN1C(=O)c1cc2c(cc1C)nc(N)c1cnn(C)c12` (stereo not drawn) [Example 401, (4-amino-1,7-dimethyl-1H-pyrazolo[4,3-c]quinolin-8-yl)(2-(2-methoxyphenyl)-4-methylpyrazolidin-1-yl)methanone], in that order: 3.5 nM, above 10000 nM, 204 nM and above 49.02.
On to `Cc1cc2nc(N)c3cnn(C)c3c2cc1C(=O)N1CCCN1c1ncc(-c2cccnc2)cc1F` [Example 473, (4-amino-1,7-dimethyl-1H-pyrazolo[4,3-c]quinolin-8-yl)(2-(5-fluoro-[3,3'-bipyridine]-6-yl)pyrazolidin-1-yl)methanone], for which the IC50 in assay [1] (read-out: IC50) was found to be 9 nM; in assay [2], 5100 nM; in assay [3] it was 91 nM. The “Selectivity HCT 116-WT/ HCT116 MTAP KO” value in assay [3] is reported as 56.09.
Turning to `Cc1cc2cc(C(=O)N(Cc3ccc(C(F)(F)F)cn3)N(C)c3ncc4ccccc4n3)ccc2nc1N` [Example 109, 2-amino-N',3-dimethyl-N'-(quinazolin-2-yl)-N-((5-(trifluoromethyl)pyridin-2-yl)methyl)quinoline-6-carbohydrazide], the IC50 in assay [1] (read-out: IC50) is 1.2 nM; in assay [2], 1070 nM; in assay [3], 74 nM. For the same compound, the “Selectivity HCT 116-WT/ HCT116 MTAP KO” value in assay [3] was found to be 14.41.
As to `Cc1cc2cc(C(=O)N(Cc3ccc(-c4ccnnc4)cn3)N(C)c3ncccn3)ccc2nc1N` [Example 220, 2-amino-N',3-dimethyl-N-((5-(pyridazin-4-yl)pyridin-2-yl)methyl)-N'-(pyrimidin-2-yl) quinoline-6-carbohydrazide], the figures for the IC50 in assay [1] (read-out: IC50), in assay [2] and in assay [3] were 1.2 nM, 405 nM and 23 nM, respectively. Further, in assay [3], the “Selectivity HCT 116-WT/ HCT116 MTAP KO” value came out at 17.61.
